Measured values reported in paper PMC6048268, “Resveratrol Inhibits Key Steps of Steroid Metabolism in a Human Estrogen-Receptor Positive Breast Cancer Model: Impact on Cellular Proliferation” (Frontiers in Pharmacology, 2018).
Where two headings read alike, the source gives them in different places.

Tests used:
MCF-7 cells = test: Cell proliferation, Casy cell counting, MCF-7; format: cell-based, human
Method: MDA-MB-231 and MCF-7 breast cancer cells were purchased from the American Type Culture Collection (ATCC; Manassas, VA, United States) and routinely cultivated at 37°C (95% humidity and 5% CO2) in phenolred-free Dulbecco’s modified Eagle medium F-12 (DMEM/F-12), fortified with 1% PenStrep®-solution and 10% fetal bovine serum (Invitrogen; Thermo Fisher Scientific, Inc., Waltham, MA, United States). All experiments were performed during the exponential growth phase of both cell lines. For the experiments, cells were seeded in 6-well-plates at a density of 1.0 × 10^6 cells per well and allowed to attach for 24 h.
Prior to cell counting with a Casy® TT Cell Counter (OLS OMNI Life Science, Bremen, Germany), the supernatant medium was removed and cells were detached using 400 μl TrypLe® solution (Invitrogen). All experiments were performed in triplicate, and the data were reported as the means ± standard deviation of all values.

SULT2A1 mRNA = test: Real-time PCR, SULT2A1 mRNA expression in MCF-7 cells; format: cell-based, human; details: 10 μM RES, 24 and 48 h, data not shown
Method: MCF-7 breast cancer cells were seeded in 6-well plates at a density of 1.0 × 10^6 cells per well and allowed to attach overnight. […] Expression profiling of genes of interest was performed as detailed previously ([Mechtcheriakova et al., 2007]; [Meshcheryakova et al., 2016]). Upon treatment, total RNA was isolated using peqGOLD TriFAST^TM reagent (VWR, Vienna, Austria) according to the manufacturer’s protocol. 1 μg RNA was used for cDNA generation using the High Capacity cDNA Reverse Transcription Kit (Thermo Fisher Scientific, Inc.) according to the instructions of the manufacturer. Real-time PCR analysis was performed in the 96-well plate format on a QuantStudio 12K Flex Real-Time PCR System (Thermo Fisher Scientific, Inc.). SULT1A1 and SULT2A1 were detected using the corresponding TaqMan Assays (Thermo Fisher Scientific, Inc.). […] HKGs primers were self-designed using the Primer Express 3.0 software (Thermo Fisher Scientific, Inc.) and validated using the Human Total RNA Master Panel (TaKaRa Bio, Inc., Saint-Germain-en-Laye, France), as described before ([Mechtcheriakova et al., 2007], [2011]); Primers: UBC forward: […]; UBC reverse: […]; GAPDH forward: […]; GAPDH reverse: […]; ACTB forward: […]; ACTB reverse: […]. For relative quantification, data were analyzed by applying the ΔΔCT method. […]

SULT1A1 mRNA = test: Real-time PCR, SULT1A1 mRNA expression in MCF-7 cells; format: cell-based, human; details: 10 μM RES; for down-regulation of SULT1A1 mRNA: non-significant
Method: MCF-7 breast cancer cells were seeded in 6-well plates at a density of 1.0 × 10^6 cells per well and allowed to attach overnight. […] Expression profiling of genes of interest was performed as detailed previously ([Mechtcheriakova et al., 2007]; [Meshcheryakova et al., 2016]). Upon treatment, total RNA was isolated using peqGOLD TriFAST^TM reagent (VWR, Vienna, Austria) according to the manufacturer’s protocol. 1 μg RNA was used for cDNA generation using the High Capacity cDNA Reverse Transcription Kit (Thermo Fisher Scientific, Inc.) according to the instructions of the manufacturer. Real-time PCR analysis was performed in the 96-well plate format on a QuantStudio 12K Flex Real-Time PCR System (Thermo Fisher Scientific, Inc.). SULT1A1 and SULT2A1 were detected using the corresponding TaqMan Assays (Thermo Fisher Scientific, Inc.). […] HKGs primers were self-designed using the Primer Express 3.0 software (Thermo Fisher Scientific, Inc.) and validated using the Human Total RNA Master Panel (TaKaRa Bio, Inc., Saint-Germain-en-Laye, France), as described before ([Mechtcheriakova et al., 2007], [2011]); Primers: UBC forward: […]; UBC reverse: […]; GAPDH forward: […]; GAPDH reverse: […]; ACTB forward: […]; ACTB reverse: […]. For relative quantification, data were analyzed by applying the ΔΔCT method. Expression levels of target genes were normalized to the average of the HKGs and shown relative to unstimulated cells (0 h time-point).

[1] = system: steroid metabolism in MDA-MB-231 cells; test: Inhibition of steroid metabolism by RES in MDA-MB-231 cells (LC–HRMS); format: cell-based, human; details: MDA-MB-231, 100 μM RES, 100 nM DHEA or E1, 48 h
Method: (§1) Briefly, cartridges were preconditioned with 2 × 1.0 ml acetonitrile and 3 × 1.0 ml ammonium acetate buffer (10 mM, pH = 5.0), and the samples were loaded onto the columns. After washing with 1 × 1.0 ml ammonium acetate buffer (10 mM, pH = 5.0) and 2 × 1.0 ml acetonitrile/ammonium acetate buffer (10 mM, pH 5.0) 10:90 (v/v), the analytes were eluted using 2 × 650 μl acetonitrile/ammonium acetate buffer (10 mM, pH = 5.0) 95:5 (v/v) and evaporated until dry. Subsequently, samples were reconstituted in 270 μl acetonitrile/ammonium acetate buffer (10 mM, pH = 5.0) 25:75 (v/v) and stored at -80°C until further LC–HRMS analysis.
After media collection, cell monolayers were washed five times with 2.0 ml DPBS, detached using 400 μl TrypLE® solution (37°C, 5 min), mixed with 600 μl DPBS and transferred into sample vials. Aliquots of these suspensions (100 μl each) were diluted and counted using the Casy® TT Cell Counter to determine the exact number of cells per sample well. […]
LC was performed with an UltiMate 3000 RSLC-series system coupled to a maXis HD ESI-Qq-TOF mass spectrometer (Bruker Corporation, Bremen, Germany). […] In the range of m/z 150–500, full-scan mass spectra were recorded.
(§2) The modes of inhibition were subsequently determined from Lineweaver–Burk plots, and the corresponding Ki values were calculated from Dixon plots using GraphPad Prism 6.0.

[2] = system: steroid metabolism in MCF-7 cells; test: Inhibition of steroid metabolism by RES in MCF-7 cells (LC–HRMS); details: for inhibition at 10 µM: Homo sapiens, MCF7, 48 h; for Ki: MCF-7, Dixon plot
Method: as §1
After media collection, cell monolayers were washed five times with 2.0 ml DPBS, detached using 400 μl TrypLE® solution (37°C, 5 min), mixed with 600 μl DPBS and transferred into sample vials. Aliquots of these suspensions (100 μl each) were diluted and counted using the Casy® TT Cell Counter to determine the exact number of cells per sample well. The remaining cell suspensions (900 μl each) were gently centrifuged (1000 rpm, 8 min), and the supernatants were discarded. The cell pellets were subsequently resuspended in 100 μl aqueous ammonium acetate buffer (10 mM, pH = 5.0) and lysed by five freeze-thaw-cycles in liquid nitrogen (3 min each), followed by thawing at ambient temperature. Ammonium acetate buffer (1000 μl) was added, and the suspensions were centrifuged (14000 rpm, 5 min). Subsequently, the supernatants were concentrated using the same SPE protocol as described above. All processed samples were then stored at -80°C until further LC–HRMS analysis. For each condition, three biologically independent experiments were performed; the reported values represent the overall means ± SD of all values.
LC was performed with an UltiMate 3000 RSLC-series system coupled to a maXis HD ESI-Qq-TOF mass spectrometer (Bruker Corporation, Bremen, Germany). A Phenomenex Luna® 3 μm C18(2) 100 Å LC column (250 mm × 4.6 mm I.D.; Phenomenex, Inc., Torrance, CA, United States), preceded by a Hypersil® BDS-C18 guard column (5 μm, 10 mm × 4.6 mm I.D.; Thermo Fisher Scientific, Inc.) was used for the separation of the analytes at a flow rate of 1.0 ml/min and a temperature of 43°C. […] The ESI ion source settings were as follows: capillary voltage: -4.5 kV; dry gas flow rate: 8.0 l/min N2; nebulizer: 1.0 bar N2; and dry temperature: 200°C. The ion transfer parameters were set to 400 Vpp funnel RF and 300 Vpp multipole RF, the quadrupole ion energy was 8.0 eV, and the collision cell parameters were as follows: collision RF, 1100 Vpp; collision energy, 10.0 eV; transfer time, 38 μs; and pre-pulse storage, 18 μs. In the range of m/z 150–500, full-scan mass spectra were recorded.
as §2

[3] = MCF-7, 100 μM RES, 100 nM DHEA, 48 h
[4] = MCF-7, 100 μM RES, 100 nM E1, 48 h

What does the source list for Oc1ccc(/C=C/c2cc(O)cc(O)c2)cc1 [RES, 3,5,4′-trihydroxy-trans-stilbene]?
increase in cell counts on co-incubation (MCF-7 cells; 5 μM RES + 100 nM E1, 48 h, vs control without E1): twofold increase in cell counts; cell number (MCF-7 cells; 5 μM RES, 48 h): 2.92 ± 0.16 × 10^6 cells; effect on cellular proliferation (MCF-7 cells; 10 μM RES, 48 h): no effect; cell number (MCF-7 cells; 100 μM RES, 48 h): 1.08 ± 0.11 × 10^6 cells; Emax at 5 µM (MCF-7 cells; Homo sapiens, MCF7, 48 h, read-out: stimulation of cellular growth (maximal effect)): 21.2 ± 3.3%; IC50 (MCF-7 cells; Homo sapiens, MCF7, MCF-7, 48 h, steroid-deprived, read-out: IC50 (inhibition of cell growth)): 37.4 ± 14.5 µM; effect on SULT2A1 expression (SULT2A1 mRNA): marginally down-regulated; down-regulation of SULT1A1 mRNA (SULT1A1 mRNA; 24 h): 23.6 ± 13.0%; down-regulation of SULT1A1 mRNA (SULT1A1 mRNA; 48 h): 30.4 ± 11.0%; effect on transcription of SULT1A1 (SULT1A1 mRNA; up to 4 h): did not affect; effect on formation of DHEA-S, E1-S, E2-S and E2-G [1]: did not affect; effect on formation of unconjugated AD, T and E2 [1]: no significant influence; inhibition at 10 µM ([2]; read-out: inhibition of E1 sulfation): 91.6 ± 1.1%; inhibition at 10 µM ([2]; read-out: inhibition of E2 sulfation): 90 ± 1%; increase in AD concentrations [2, 3]: 141.0%; increase in T levels [2, 3]: 305.9%; reduction of mean formation of DHEA-S [2, 3]: 87.7%; increase in unconjugated E2 concentrations [2, 4]: 101.6%; reduction of mean formation of E1-S [2, 4]: 99.1%; reduction of mean formation of E2-G [2, 4]: 89.7%; reduction of mean formation of E2-S [2, 4]: 98.8%; mode of inhibition of conjugate formation ([2]; MCF-7, Lineweaver–Burk and Dixon plots, all conjugates): non-competitive; Ki ([2]; read-out: Ki, inhibition of DHEA-S formation, DHEA precursor): 13.2 ± 0.2 µM; Ki ([2]; read-out: Ki, inhibition of E1-S formation, E1 precursor): 0.94 ± 0.03 µM; Ki ([2]; read-out: Ki, inhibition of E2-G formation, E1 precursor): 7.92 ± 0.24 µM; Ki ([2]; read-out: Ki, inhibition of E2-S formation, E1 precursor): 0.73 ± 0.07 µM
